# In US10865191B2, “Heterocyclic compounds useful as modulators of TNF alpha” (BRISTOL-MYERS SQUIBB COMPANY, priority 2015, dated 2020):
# Target: TNFα (Homo sapiens, UniProt P01375)
# Experiment: TNF induced HEK-Blue assay (NF-kB-driven secreted alkaline phosphatase reporter)
# Assay type: cell-based
# Conditions: TNF induced HEK-Blue assay IC50 value, TNFα 0.5 ng/mL, HEK-Blue-CD40L cells, 18 h
# In short: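 HEK-Blue-CD40L cells (NF-kB-driven SEAP reporter), 20,000/well, added after 30 min pre-incubation of compound (0.004–25 μM final) with TNFα 0.5 ng/mL final at 37 °C; 18 h incubation. SEAP read with QUANTI-Blue at 620 nm; IC50 from 4-parameter logistic fit, normalized to unstimulated and stimulated DMSO controls.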
# Chain of TNFα (P01375 77-233 limits assumed): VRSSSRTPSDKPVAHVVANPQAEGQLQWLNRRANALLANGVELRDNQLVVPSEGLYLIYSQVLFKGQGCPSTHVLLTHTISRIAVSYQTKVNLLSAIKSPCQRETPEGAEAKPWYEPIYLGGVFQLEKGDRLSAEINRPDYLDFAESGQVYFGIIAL
row,SMILES,IC50 [nM]
1,"CC(Nc1c(Cl)cnc2cc(F)c(-c3cnc(C(C)(C)O)nc3)cc12)c1ccccc1F (stereo not shown) [Example 250, 2-(5-(3-chloro-7-fluoro-4-((1-(2-fluorophenyl)ethyl)amino)quinolin-6-yl)pyrimidin-2-yl)propan-2-ol]",1000 to 10000

# Same assay, conditions: TNFα 0.5 ng/mL, HEK-Blue-CD40L cells, 18 h; read-out: TNF induced HEK-Blue assay IC50 value
row,SMILES,IC50 [nM]
1,"CC(C)(O)c1ncc(-c2ccc3ncc(Cl)c(NC(c4ccccc4F)C(F)(F)F)c3c2)cn1 (racemic) [Example 164, 2-(5-(3-chloro-4-((2,2,2-trifluoro-1-(2-fluorophenyl)ethyl)amino)quinolin-6-yl)pyrimidin-2-yl)propan-2-ol]",1000 to 10000
2,"C[C@H](Nc1c(Cl)cnc2ccc(-c3cnc(C(C)(C)O)nc3)cc12)[C@H]1CCCN(C(=O)c2cccnc2)C1 [Example 566, ((S)-3-((S)-1-((3-chloro-6-(2-(2-hydroxypropan-2-yl)pyrimidin-5-yl)quinolin-4-yl)amino)ethyl)piperidin-1-yl)(pyridin-3-yl)methanone]",1000 to 10000
3,"C[C@@H](Nc1c(Cl)cnc2ccc(-c3cnc(NCC(N)=O)nc3)cc12)c1ccccc1F [Example 585, (R)-2-((5-(3-chloro-4-((1-(2-fluorophenyl)ethyl)amino)quinolin-6-yl)pyrimidin-2-yl)amino)acetamide]",10000 to 25000
4,"C[C@@H](Nc1c(Cl)cnc2ccc(-c3cnc(C(C)(C)O)nc3)cc12)c1cc(-c2ncccn2)ccc1F [Example 345, (R)-2-(5-(3-chloro-4-((1-(2-fluoro-5-(pyrimidin-2-yl)phenyl)ethyl)amino)quinolin-6-yl)pyrimidin-2-yl)propan-2-ol]",< 1000
5,"C[C@@H](Nc1c(Cl)cnc2ccccc12)c1cc(-c2cnn(CCN3CCOCC3)c2)ccc1F [Example 480, (R)-3-chloro-N-(1-(2-fluoro-5-(1-(2-morpholinoethyl)-1H-pyrazol-4-yl)phenyl)ethyl)quinolin-4-amine]",10000 to 25000
6,"C[C@@H](Nc1c(Cl)cnc2ccccc12)c1cc(-c2ccnnc2)ccc1F [Example 515, (R)-3-chloro-N-(1-(2-fluoro-5-(pyridazin-4-yl)phenyl)ethyl)quinolin-4-amine]",1000 to 10000

# The remaining lines, values ahead:
row,IC50 [nM],SMILES
1,< 1000,"Cc1ccc(C)c(Nc2c(Cl)c(C(=O)Nc3ccncc3)nc3ccc(-c4ccc(C#N)nc4)cc23)c1 [Example 36, 3-chloro-6-(6-cyanopyridin-3-yl)-4-((2,5-dimethylphenyl)amino)-N-(pyridin-4-yl)quinoline-2-carboxamide]"
2,< 1000,"C[C@@H](Nc1c(Cl)cnc2ccc(-c3cnc(C(C)(C)O)nc3)cc12)c1cc(C(O)CO)ccc1F (single isomer, unassigned) [Example 400]"
3,< 1000,"Cc1nc2ccc(-c3cnc(N4CCN(CC(=O)O)CC4)nc3)cc2c(N[C@H](C)c2cc(C(N)=O)ccc2F)c1Cl [Example 389, (R)-2-(4-(5-(4-((1-(5-carbamoyl-2-fluorophenyl)ethyl)amino)-3-chloro-2-methylquinolin-6-yl)pyrimidin-2-yl)piperazin-1-yl)acetic acid]"
4,< 1000,"CC(C)(O)c1ncc(-c2ccc3ncc(Cl)c(NC4(c5ccccc5F)CC4)c3c2)cn1 [Example 158, 2-(5-(3-chloro-4-((1-(2-fluorophenyl)cyclopropyl)amino)quinolin-6-yl)pyrimidin-2-yl)propan-2-ol]"
5,< 1000,"NC1(C(=O)O)CCN(c2ncc(-c3ccc4ncc(Cl)c(N[C@@H](c5ccccc5F)C(F)F)c4c3)cn2)CC1 [Example 75, (S)-4-amino-1-(5-(3-chloro-4-((2,2-difluoro-1-(2-fluorophenyl)ethyl)amino)quinolin-6-yl)pyrimidin-2-yl)piperidine-4-carboxylic acid]"
6,< 1000,"C[C@@H](Nc1c(Cl)cnc2ccc(-c3cnc(C(C)(C)O)nc3)cc12)c1cc(-c2ccnc(N)c2)ccc1F [Example 350, (R)-2-(5-(4-((1-(5-(2-aminopyridin-4-yl)-2-fluorophenyl)ethyl)amino)-3-chloroquinolin-6-yl)pyrimidin-2-yl)propan-2-ol]"
